In publication PMC3627040, “Methadone but not Morphine Inhibits Lubiprostone-Stimulated Cl^− Currents in T84 Intestinal Cells and Recombinant Human ClC-2, but not CFTR Cl^− Currents” (Cell Biochemistry and Biophysics, 2012):

Molecular target: T1, human ClC-2 (hClC-2) Cl^− channel (Homo sapiens, UniProt P51788)
T1 construct: gene CLCN2; recombinant hClC-2 stably expressed in HEK293EBNA cells
T1 sequence (P51788 2-898): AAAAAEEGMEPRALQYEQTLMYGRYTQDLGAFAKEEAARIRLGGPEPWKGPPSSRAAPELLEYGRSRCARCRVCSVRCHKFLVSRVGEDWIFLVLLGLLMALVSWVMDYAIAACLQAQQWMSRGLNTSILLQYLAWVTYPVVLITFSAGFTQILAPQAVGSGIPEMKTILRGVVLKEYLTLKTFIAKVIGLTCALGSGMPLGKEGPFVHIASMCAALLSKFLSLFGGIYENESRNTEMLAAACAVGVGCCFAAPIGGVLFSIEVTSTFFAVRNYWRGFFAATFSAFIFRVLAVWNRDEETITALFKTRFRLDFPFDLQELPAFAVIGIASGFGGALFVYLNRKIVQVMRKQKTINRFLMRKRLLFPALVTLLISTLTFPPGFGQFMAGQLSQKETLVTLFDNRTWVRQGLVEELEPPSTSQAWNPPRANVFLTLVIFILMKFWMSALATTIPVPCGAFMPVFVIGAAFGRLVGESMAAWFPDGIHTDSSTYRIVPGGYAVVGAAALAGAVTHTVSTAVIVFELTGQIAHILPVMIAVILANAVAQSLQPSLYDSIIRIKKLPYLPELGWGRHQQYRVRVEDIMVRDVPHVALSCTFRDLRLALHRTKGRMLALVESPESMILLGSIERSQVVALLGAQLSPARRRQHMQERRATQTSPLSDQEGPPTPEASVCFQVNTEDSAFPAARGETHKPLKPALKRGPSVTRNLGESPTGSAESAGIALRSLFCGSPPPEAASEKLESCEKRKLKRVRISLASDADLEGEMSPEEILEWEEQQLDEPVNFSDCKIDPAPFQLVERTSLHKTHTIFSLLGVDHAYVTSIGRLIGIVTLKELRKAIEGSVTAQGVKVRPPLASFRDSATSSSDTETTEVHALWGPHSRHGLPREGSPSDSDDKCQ
Experiment: whole cell patch clamp, activation of Cl- currents at -140 mV
Format: cell-based

## CCCCC(F)(F)[C@@]1(O)CC[C@H]2[C@@H](CC(=O)[C@@H]2CCCCCCC(=O)O)O1 [Lubiprostone]
  EC50: 28.2 nM
